How the values were obtained:
[1] = tested on: VCAM-1 and COX2; test: TNF-α-induced VCAM-1 and COX2 expression in colon epithelial cells (immunoblot); format: cell-based, mouse; conditions: TNF-α-treated colon epithelial cells, 5 μM
Procedure: Referring to FIG. 1, for example, colon epithelial cells were treated with TNF-α for the indicated time intervals in the presence or absence 5 μM of the PARP inhibitor AZD2281.
Cell isolation, culture, treatments, RNA extraction, cDNA synthesis and quantitative PCR—Primary CEC were isolated essentially as described (29). The mouse colon adenocarcinoma (MC-38 or CT-26), Jurkat T, RAW264.7, or 3LL lung carcinoma cell lines were purchased from Kerafast (Boston, MA) or ATCC (Manassas, VA). Mouse embryonic fibroblasts were derived from WT, PARP-1^+/−, or PARP mice using standard protocols. CEC were serum-starved overnight in 0.5% FBS prior to treatment. […] Quantitative determination of gene expression levels using a 2-step cycling protocol was conducted on a MyIQ Cycler (Bio-Rad, Hercules, CA, USA). Relative expression levels were calculated using the 2[-Delta Delta C(T)] method. Quantities of all targets were normalized to the mouse β-actin gene.
Cell fractionation, protein extraction and immunoblot analysis—Tumor tissues or cells were harvested and homogenized in RIPA lysis buffer (Santa Cruz Biotechnology) containing a cocktail of protease and phosphatase inhibitors on ice. […] Protein expression signals developed by ECL (Pierce, ThermoFisher Scientific) were determined by a G:Box Gel Image Analysis System (Syngene, Cambridge, UK) equipped with the GeneSys image capture software.

[2] = tested on: steroid-resistant leukemia cells; test: Steroid-resistant leukemia cells: cell killing and NOTCH levels; format: cell-based; conditions: 4 nM
[3] = tested on: MDSCs and T cells; test: FACS of tumor-infiltrating and spleen immune cells in the MC-38 model; format: in vivo, mouse
Excerpt: Tumors from the different experimental groups were either processed to generate single-cell suspensions or fixed with formalin. Single cell suspensions were stained with a combination of antibodies to CD45, CD11b, Gr1, Ly6C, and Ly6G. CD11b^+ cell population was gated from the live CD45^+ population. (A) Representative FACS dot plot of the experimental groups. (B) Absolute numbers and percentages of CD11b^+Gr1^+ cell populations in tumors of the different groups. (C) Absolute numbers and percentages of CD11b^+Ly6C^+ and CD11b^+Ly6G^+ populations in tumors of the different groups. (D) Absolute numbers and percentages of CD45^+CD3^+ and CD3^+CD8^+ cell populations in tumors of the different groups. […] (F) Percentages of CD45^+CD3^+ and CD3^+CD8^+ cell populations in spleens of the different groups. […] T cell proliferation was assessed by FACS. p≤0.05; **, p≤0.01; ***, p≤0.001.
Flow cytometric characterization of tumor infiltrating immune cells using fluorescence-activated cell sorting (FACS) analysis—Following digestion, tumor homogenates were filtered through a […] cell strainer to obtain a single cell suspension. Cell suspensions were then subjected to red blood cell lysis using ACK buffer for 5 minutes before resuspending in complete media. Cells were treated with anti-CD16/CD32 (BD; 2.4G2) for Fc blocking prior to staining with fluorescently-labeled mouse antibodies specific for CD45 (30-F11), CD3e (500A2) (both from eBioscience, San Diego, CA), Ly6C (AL-21), Ly6G (1A8), Gr1 (RB6-8C5), CD11b (M1/70), CD8 (53-6.7), and PD-1 (PA5-J43) (all from BD Biosciences, San Jose, CA). Single cells were gated by first using forward- and side-scatter doublet discrimination. Immune cells were discriminated from this doublet-excluded population using CD45. Myeloid cells were identified using a CD11b^+gate and MDSC subtypes identified by Gr1 selection and then plotted Ly6G/Ly6C. CD3^+ T-cells were gated from CD45^+ cells. CD4^+ and C8^+ T-cells were identified from CD3^+ gate. The detailed gating strategy is described in FIG. 45.

O=C(c1cc(Cc2n[nH]c(=O)c3ccccc23)ccc1F)N1CCN(C(=O)C2CC2)CC1 [olaparib]
expression of inflammatory markers (VCAM-1 and COX2) [1]: inhibits the expression of inflammatory markers | sensitivity of the cells to dexamethasone [2]: completely reversed sensitivity of the cells to dexamethasone | CD3+ T cells in tumors (mostly CD8+) ([3]; low dose 0.2 mg/kg): increased | percentages and numbers of CD11b+/Gr1+ MDSCs in tumors ([3]; low dose 0.2 mg/kg): did not significantly affect | numbers and percentages of M-MDSCs in tumors ([3]; moderate dose 5 mg/kg): significantly increased | overall CD3+ T cells in spleens (with concomitant decrease in CD8+) ([3]; moderate dose 5 mg/kg): substantial decrease
